Experiment [1] has as its target T1, Retinal rod rhodopsin-sensitive cGMP 3',5'-cyclic phosphodiesterase subunit delta (Homo sapiens, UniProt O43924).
Description: Binding affinity to PDE-delta (unknown origin) assessed as shift in melting temperature
Experiment [2] concerns the target T1, Retinal rod rhodopsin-sensitive cGMP 3',5'-cyclic phosphodiesterase subunit delta. As to the kind of experiment: Binding affinity to His6-tagged PDE-delta (unknown origin) measured every 3 mins by fluorescence polarization assay. (In general: Fluorescence polarisation rises when a labelled molecule tumbles more slowly, as on binding a larger partner.)

T1 sequence (O43924 whole entry): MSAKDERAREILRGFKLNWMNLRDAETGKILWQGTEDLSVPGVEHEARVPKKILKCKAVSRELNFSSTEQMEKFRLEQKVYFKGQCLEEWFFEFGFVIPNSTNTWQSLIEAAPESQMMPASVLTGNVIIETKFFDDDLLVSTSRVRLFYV

Turning to `c1ccc(Cn2c(-c3ccc(OCC(C4CCNCC4)n4c(-c5ccccc5)nc5ccccc54)cc3)nc3ccccc32)cc1` (stereo not given), the thermal shift (ΔTm) in experiment [1] was determined as 20.5 °C. For the molecule `CC(C)(C)OC(=O)N1CCC(C(COc2ccc(-c3nc4ccccc4n3Cc3ccccc3)cc2)n2c(-c3ccccc3)nc3ccccc32)CC1` (stereo not given), the ΔTm in experiment [1] came out at 7.2 °C. The molecule further registered a dissociation constant Kd in experiment [2] above 2000 nM. On to `CC(C)c1nc(N(C)S(C)(=O)=O)nc(-c2ccc(F)cc2)c1/C=C/[C@@H](O)C[C@@H](O)CC(=O)O` [ROSUVASTATIN], for which binding in experiment [2] was put at a Kd of 1250 nM.

As to `C=CC(=O)N1CCC(c2nc3ccccc3n2Cc2ccccc2)CC1`, the Kd in experiment [2] was above 1000 nM.

What is called ΔTm is the shift of the melting midpoint relative to a reference. One may read the Kd as a measure of binding affinity in units of concentration.

(Values after ChEMBL document CHEMBL3286256 (J Med Chem, 2014).)
